Here are results for one molecule from US20230174523A1, “BENZENESULFONAMIDE DERIVATIVES AS TRAP1 MODULATORS AND USES THEREOF” (Amathus Therapeutics, Inc., priority 2020, published 2023).

In this experiment the test system is mIMCD3 Pkd1−/− cells. The experiment in a line: Mouse cell derived cyst assay. Format: cell-based. The note with it: PKD KO mouse cell derived cyst forming assay; FIG. 13. The protocol: Mouse cell derived cyst assays were performed as described in Booij, Tijmen H et al., SLAS discovery: advancing life sciences R & D vol. 22.8 (2017): 974-984, or as described below.
Murine inner medullary collecting duct cell line (mIMCD3 Pkd1^−/− cells) • mIMCD3 Pkd1 KO cells were seeded in 384 wells plates in extracellular matrix. • 4 days after seeding, cultures were co-exposed to treatments and stimuli (2.5 μM forskolin); • After 72 h, cultures were fixed, stained for nuclei and actin cytoskeleton and imaged with 4× magnification; and • Image analysis of the 3D stack was done using Ominer™ image analysis software.

For `Cc1nn(C)c2sc(C(=O)Nc3ccc(F)c(S(=O)(=O)Nc4ccc(Cl)cc4)c3)cc12` [Compound 705], the cyst formation entry was “preventing cyst formation”.
